“Also recorded” adds a separate entry of the source.
Legend:
[1] = tested on: 3D-MPS derived from SUM149-PT cells; assay: Real-time growth of RFP-tagged 3D-mammospheres (3D-MPS); assay type: cell-based, human; conditions: SUM149-PT 3D-MPS, AV-353 100 ng and/or DTX 5 nM, 96 hours
Protocol: FIGS. 7A and 7B show results from treatment of 3D-mammospheres (3D-MPS) of SM149-PT TNBC cells with AV-353 (½ IC50: 100 ng) and/or DTX (½ IC50: 5 nM). FIG. 7A includes representative images of RFP-tagged 3DMPS before and after treatment with AV-353 (½ IC50: 100 ng) and/or DTX (½ IC50: 5 nM) for 96 hours, using Annexin-V (red) as a marker of early apoptosis. FIG. 7B is a graph plotting real-time growth of RFP-tagged 3D-MPS before and after treatment with AV-353 (½ IC50: 100 ng) and/or DTX (½ IC50: 5 nM) for 96 hours. 3D-MPS growth was quantified using the INCUCYTE® Cell Player System. Three independent experiments were performed in triplicate (±S.D.).
(§1) Mammospheres Formation: Human breast cancer cells were plated in ultra-low attachment 24-well and 96-well culture dishes in 100 μL of MAMMOCULT™ medium (STEMCELL™ Technologies; Vancouver, BC, Canada). Medium was added every 2 days for a maximum of 8 days. Mammospheres were trypsinized and expanded every 8 days to form tertiary mammospheres, and their growth was recorded through a digital camera (Nikon).
Real-Time Cell Proliferation, Cytotoxicity and Apoptosis Assays: 5,000 cells were plated in Costar […] plates, treated with Docetaxel (DTX) and/or AV-353 (as monotherapy or in combination). Cell proliferation was monitored in real-time by GFP or RFP fluorescence intensity, and Red Annexin-V was used as an early marker of apoptosis. […]

[2] = tested on: TNBC-M25 3D-MPS; assay: TNBC-M25 mammosphere growth (area, Image-J); assay type: cell-based, human
Protocol: FIGS. 4A and 4B show NOTCH3 genetic targeting in TNBC-M25 mammospheres. FIG. 4A includes images of TNBCM25 single-cell dilutions grown under non-adherent conditions. After 48 hours of incubation, mammospheres were treated with 5 nM (½ IC50) or 10 nM (IC50) docetaxel (DTX) for 10 days. FIG. 4B is a graph plotting mammosphere area measured using the NIH Image-J software. Three independent experiments were performed in triplicate (±S.D.).
as §1
as §1, with “Mammosphere Formation:” for “Mammospheres Formation:”, “attachment 24-” for “attachment 24-well”, “(STEMCELL™ Technologies), and medium” for “(STEMCELL™ Technologies; Vancouver, BC, Canada). Medium”

[3] = Toxicology studies, PTX with escalating doses of AV-353; assay type: in vivo, female NSG mice; conditions: PTX 10 mg/Kg, AV-353 100, 200, 400 ug
Protocol: FIG. 17 is a series of graphs plotting liver toxicity in mice treated with saline (CON), paclitaxel 10 mg/Kg (PTX), paclitaxel 10 mg/Kg+AV-353 100 ug (PTX+AV100), paclitaxel 10 mg/Kg+AV-353 200 ug (PTX+AV200), or paclitaxel 10 mg/Kg+AV-353 400 ug (PTX+AV400), based on measurements of liver function indicators: alanine aminotransferase (ALT), aspartate aminotransferase (AST), alkaline phosphatase (ALP), and total bilirubin (TBIL), as well as an indicator of kidney function (creatinine; CRE), and an indicator of general nutritional status (albumin; ALB). Blood samples (1 ml) were collected from animals, and liver enzyme analysis was carried out using a VETSCAN® instrument (Zoetis; Parsippany, NJ).
Toxicology studies: Female NSG mice received saline solution (control) or 10 mg/Kg paclitaxel (PTX) as monotherapy or in combination with escalating doses of AV-353 (AV100 ug, AV200 ug, and AV400 ug). PTX and AV-353 were administered intraperitoneally 3 times per week for 4 weeks. […] After drug treatment, animals were euthanized and organs of interest (liver and stomach) were paraffin embedded, sectioned, and hematoxylin and eosin stained. […] Although no liver damage was detected at the morphological or histological level, further studies were conducted to determine the extent to which the drug treatments induced an increase of liver enzymes. […]

Row | Structure (SMILES) | mammosphere (3D-MPS) growth [1] | IC50 ([2]; Homo sapiens, TNBC-M25 mammospheres) | 3D-MPS growth ([2]; TNBC-M25 3D-MPS) | liver and stomach histology (H&E) ([3]; 3 times per week for 4 weeks) | body weight ([3]; intraperitoneally 3 times per week for 4 weeks)
1 | CC(=O)O[C@@]12CO[C@@H]1C[C@H](O)[C@@]1(C)C(=O)[C@H](O)C3=C(C)[C@@H](OC(=O)[C@H](O)[C@@H](NC(=O)OC(C)(C)C)c4ccccc4)C[C@@](O)([C@@H](OC(=O)c4ccccc4)[C@H]21)C3(C)C [DTX, docetaxel] | small effect on growth | 10 nM | did not inhibit 3D MPS growth |  | 
2 | CC(=O)O[C@H]1C(=O)[C@@]2(C)[C@H]([C@H](OC(=O)c3ccccc3)[C@]3(O)C[C@H](OC(=O)[C@H](O)[C@@H](NC(=O)c4ccccc4)c4ccccc4)C(C)=C1C3(C)C)[C@]1(OC(C)=O)CO[C@@H]1C[C@@H]2O [PTX, paclitaxel] |  |  |  | No significant damage; also recorded: no significant changes in the architecture of liver and stomach tissue | did not induce body weight loss
